According to ChEMBL document CHEMBL4346714, “Multitarget PPARγ agonists as innovative modulators of the metabolic syndrome” (Eur J Med Chem, 2019):

Legend:
[1] = biological target: T1, Hexokinase-4 (Homo sapiens) (UniProt P35557); assay: Activation of recombinant human glucokinase assessed as conversion of D-glucose to D-glucose-6-phosphate dehydrate at 10 uM by G6PDH/NADP coupled assay relative to control
T1 sequence (whole entry): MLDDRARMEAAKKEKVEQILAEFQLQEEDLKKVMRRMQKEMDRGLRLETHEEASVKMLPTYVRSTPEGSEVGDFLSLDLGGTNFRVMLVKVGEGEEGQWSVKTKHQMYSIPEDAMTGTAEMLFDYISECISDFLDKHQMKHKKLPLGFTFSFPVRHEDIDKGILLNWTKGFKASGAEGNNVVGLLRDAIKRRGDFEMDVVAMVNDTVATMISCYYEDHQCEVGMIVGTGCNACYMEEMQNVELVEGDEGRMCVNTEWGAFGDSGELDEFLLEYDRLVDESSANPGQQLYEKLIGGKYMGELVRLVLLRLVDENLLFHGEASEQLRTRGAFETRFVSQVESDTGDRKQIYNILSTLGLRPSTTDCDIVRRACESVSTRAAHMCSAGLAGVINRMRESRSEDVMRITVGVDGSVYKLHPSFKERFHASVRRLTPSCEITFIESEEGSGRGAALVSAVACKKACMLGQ

[2] = biological target: T2, Peroxisome proliferator-activated receptor gamma (Homo sapiens) (UniProt P37231); assay: Transactivation of PPARgamma (unknown origin) expressed in HEK293 cells at 10 uM after 24 to 48 hrs by luciferase reporter gene assay relative to control; type: cell-based
T2 sequence (whole entry): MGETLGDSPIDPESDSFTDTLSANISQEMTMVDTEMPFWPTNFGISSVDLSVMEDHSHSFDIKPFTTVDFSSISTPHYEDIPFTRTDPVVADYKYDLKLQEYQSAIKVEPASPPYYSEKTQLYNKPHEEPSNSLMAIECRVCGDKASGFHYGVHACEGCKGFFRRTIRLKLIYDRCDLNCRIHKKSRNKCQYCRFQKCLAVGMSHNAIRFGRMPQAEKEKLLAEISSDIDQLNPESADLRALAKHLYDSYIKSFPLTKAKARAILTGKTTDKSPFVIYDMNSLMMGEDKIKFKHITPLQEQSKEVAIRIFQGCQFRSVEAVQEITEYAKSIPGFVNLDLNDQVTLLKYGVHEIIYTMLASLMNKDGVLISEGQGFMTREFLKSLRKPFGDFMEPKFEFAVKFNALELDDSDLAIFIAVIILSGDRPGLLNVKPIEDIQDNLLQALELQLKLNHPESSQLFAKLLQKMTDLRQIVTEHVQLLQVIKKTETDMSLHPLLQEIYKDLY

[3] = biological target: T1, Hexokinase-4 (Homo sapiens); assay: Activation of glucokinase (unknown origin) at 10 uM relative to control
[4] = biological target: T2, Peroxisome proliferator-activated receptor gamma (Homo sapiens); assay: Agonist activity at PPARgamma (unknown origin) at 10 uM by luciferase reporter gene assay relative to control

Structure (SMILES)	fold change (FC) [1]	Efficacy [2]	fold change (FC) [3]	Efficacy [4]
CCCOc1ccc(OCc2cccc(F)c2)cc1C(=O)Nc1ccc(C(=O)O)cn1	1.7	52.7%	–	–
CC(C)OC(=O)c1ccc(NC(=O)Cc2ccc(/C=C3\SC(=O)NC3=O)cc2[N+](=O)[O-])nc1	–	–	2.9	48%
O=C(Cc1ccc(/C=C2\SC(=O)NC2=O)cc1[N+](=O)[O-])Nc1ccccn1	–	–	2.9	47.1%
CCOC(=O)c1ccc(NC(=O)Cc2ccc(/C=C3\SC(=O)NC3=O)cc2[N+](=O)[O-])nc1	–	–	2.7	47.4%
